Experimental data published in ChEMBL document CHEMBL4184271, “Design, synthesis, anti-inflammatory activity and molecular docking of potential novel antipyrine and pyrazolone analogs as cyclooxygenase enzyme (COX) inhibitors” (Bioorg Med Chem Lett, 2018).

Legend:
[1] = test system: Rattus norvegicus; assay: Anti-inflammatory activity in Sprague-Dawley rat assessed as inhibition of carrageenan-induced edema in hind paw administered ip measured after 4 to 6 hrs relative to control; type: functional
[2] = target: T1, Prostaglandin G/H synthase 1 (Ovis aries, UniProt P05979); assay: Inhibition of ovine COX1 using arachidonic acid as substrate preincubated for 10 mins followed by substrate addition measured after 5 mins by ELISA
T1 sequence (P05979 whole entry): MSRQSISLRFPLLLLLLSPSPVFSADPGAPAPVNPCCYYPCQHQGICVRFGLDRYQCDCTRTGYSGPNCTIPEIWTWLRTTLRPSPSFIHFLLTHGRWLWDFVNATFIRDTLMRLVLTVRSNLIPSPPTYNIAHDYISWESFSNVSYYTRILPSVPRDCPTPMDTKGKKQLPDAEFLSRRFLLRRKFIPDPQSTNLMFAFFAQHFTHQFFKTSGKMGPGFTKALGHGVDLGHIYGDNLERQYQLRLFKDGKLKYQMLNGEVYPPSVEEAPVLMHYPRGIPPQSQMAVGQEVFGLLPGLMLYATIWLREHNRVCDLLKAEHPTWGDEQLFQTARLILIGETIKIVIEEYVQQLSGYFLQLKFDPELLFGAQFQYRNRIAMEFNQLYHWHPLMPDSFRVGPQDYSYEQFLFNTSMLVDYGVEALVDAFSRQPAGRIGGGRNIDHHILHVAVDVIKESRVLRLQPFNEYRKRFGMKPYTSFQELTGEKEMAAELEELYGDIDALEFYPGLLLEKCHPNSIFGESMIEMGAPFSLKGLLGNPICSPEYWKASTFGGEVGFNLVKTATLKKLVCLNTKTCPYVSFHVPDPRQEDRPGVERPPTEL

[3] = target: T2, Prostaglandin G/H synthase 1 (Ovis aries) (UniProt P05979); assay: Inhibition of ovine COX1 at 5 uM using arachidonic acid as substrate preincubated for 10 mins followed by substrate addition measured after 5 mins by ELISA relative to control
T2 sequence (whole entry): T1 sequence (P05979 whole entry)

[4] = species on record: Ovis aries; assay: Selectivity ratio of compound effect for inhibition of ovine COX2 to compound effect for inhibition of ovine COX1

IC50 [2] | inhibition [3] | Selectivity ratio [4] | Structure (SMILES) | inhibition (INH) [1]
22.2 µM | 25% | 0.67 | CC1=NN(c2ccccc2)C(=O)/C1=C\c1ccc2c(c1)OCO2 | 20.3%
2.52 µM | 84.2% | 0.82 | CC1=NN(c2ccccc2)C(=O)C1C(Nc1c(C)n(C)n(-c2ccccc2)c1=O)c1ccc2c(c1)OCO2 (stereo not given) | 48.3%
> 5 µM | 42.9% | 1.2 | CC1=NN(c2ccccc2)C(=O)C1C(c1ccc2c(c1)OCO2)N1CCN(C(c2ccc3c(c2)OCO3)C2C(=O)N(c3ccccc3)N=C2C)CC1 (stereo not given) | 21.1%
1.46 µM | 81.3% | 0.48 | Cc1c(C(CCCC(c2c(C)n(C)n(-c3ccccc3)c2=O)c2c(C)n(C)n(-c3ccccc3)c2=O)c2c(C)n(-c3ccccc3)n(C)c2=O)c(=O)n(-c2ccccc2)n1C (stereo not given) | 75%
> 5 µM | 73.4% | 1.05 | Cc1c(CN2CCN(CCO)CC2)c(=O)n(-c2ccccc2)n1C | 48.2%

The remaining lines, values behind:

Structure (SMILES) | IC50 [2] | inhibition [3] | Selectivity ratio [4] | inhibition (INH) [1]
CC1=NN(c2ccccc2)C(=O)C1C(c1c(C)n(C)n(-c2ccccc2)c1=O)N1CCCCC1 (stereo not given) | 1.33 µM | 78% | 0.95 | 40.5%
CC1=NN(c2ccccc2)C(=O)/C1=C\c1c(C)n(C)n(-c2ccccc2)c1=O | > 5 µM | 87% | 0.87 | 49.1%
CC1=NN(c2ccccc2)C(=O)C1C(c1c(C)c(=O)n(-c2ccccc2)n1C)N1CCN(C(c2c(C)c(=O)n(-c3ccccc3)n2C)C2C(=O)N(c3ccccc3)N=C2C)CC1 (stereo not given) | 1.16 µM | 87.4% | 0.87 | 49.5%
Cc1nn(-c2ccccc2)c(O)c1C(c1c(-c2ccccc2)[nH]c2ccccc12)c1c(C)c(=O)n(-c2ccccc2)n1C (stereo not given) | > 5 µM | 69.1% | 0.79 | 35.9%
Cc1c(CN2CCC(CCCC3CCN(Cc4c(C)n(C)n(-c5ccccc5)c4=O)CC3)CC2)c(=O)n(-c2ccccc2)n1C | 1.23 µM | 88.5% | 0.78 | 85.4%
Cc1ccc(-c2cc(C(F)(F)F)nn2-c2ccc(S(N)(=O)=O)cc2)cc1 [CELECOXIB] |  |  |  | 89%
CC1=NN(c2ccccc2)C(=O)C1C(Nc1c(C)n(C)n(-c2ccccc2)c1=O)c1c(C)n(C)n(-c2ccccc2)c1=O (stereo not given) | > 5 µM | 58.8% | 1.01 | 39.4%
